Common to all, as to format: cell-based
In experiment [1] the test system is MCF10A. Briefly: IC50 on non-cancerous cell cultures. The following applies: non-cancerous breast epithelial cell line.
In experiment [2] the test system is A2780 cells. Briefly: Cell death rate, PI staining of live cells (FACS). The following applies: A2780 and SKOV3 cells, 20 µM and 30 µM, 48 h. Here is the method:
For cell death rate analysis, live cells were stained with PI immediately after 48 h treatment. […] Furthermore, resistant cells show much lower Cisplatin-induced cell death rates (Figure 7). […] In A2780 cells, both compounds trigger similar cell death rates in parental and Cisplatin-resistant cells. Cisplatin-resistant SKOV3 are much more sensitive to both ruthenium(II) complexes than the parental counterpart, with a median of 3.3-fold higher sensitivity.
(§1) To examine cell cycle distribution and cell death rates, 30,000 cells were seeded in 12 well plates. After attaching for 24 h cells were treated with Cisplatin, Ru3 and Ru14 for 48 h at various concentrations for cell cycle and cell death analyses. For cell death analysis, immediately after treatment cells were stained with Propidium Iodid (PI) (1 µg/mL) on ice and the number of dead cells was measured using BD Canto II. For cell cycle distribution, cells recovered for 24 h after treatment. Afterwards, cells were fixed in ice-cold, 50% EtOH for 24 h at −20 °C. For DNA staining, fixed cells were incubated in PBS with 0.05% Triton-X, 0.1 µg/mL RNaseA and 50 µg/mL PI for 1 h at 4 °C in dark. DNA content was measured using BD Canto II.

Experiment [3] relates to A2780 and SKOV3 cells and the resistant subcultures. The experiment is described as follows: Cell cycle distribution, PI staining and FACS. The following applies: 48 h treatment, 24 h recovery. As for the experimental part: The reduced viability under treatment, as measured by the MTT assay, can be a result of cell cycle arrest and/or increased cell death. To further evaluate the anticancer properties of the ruthenium(II) complexes we measured cell cycle distribution and cell death rates after treatment with Ru3 or Ru14. After seeding and attaching, the cells were treated for 48 h with different concentrations of substances. For cell cycle distribution measurements, a recovery phase of 24 h was added after treatment, and cells were fixed and stained with PI for the DNA content. Arresting of cells in specific cell cycle phases gives them time to resolve the DNA damage (G1 arrest) or is an initial step to apoptosis if DNA damage is too severe (G2/M arrest).
as §1

In experiment [4] the test system is Keratinocytes. The experiment is described as follows: IC50 on non-cancerous cell cultures. The following applies: normal primary short-term cell culture.
In experiment [5] the test system is Fibroblasts. The experiment is described as follows: IC50 on non-cancerous cell cultures. As to conditions: normal primary short-term cell culture.

What is called IC50 is the concentration that inhibits the measured activity by half. As for “[(η^6-p-cymene)Ru(1-(3-ethoxyphenyl)-3-(methylthio)-3-thioxo-prop-1-en-1-olate-O,S)] [Ru14]”, the 50% inhibitory concentration (IC50) in experiment [1] is 16.7 µM; in experiment [4] it was more than 100 µM; in experiment [5], more than 100 µM. Further, in experiment [2], the “capacity to induce cell death in vitro” value is on record as “high capacity to induce cell death”. In experiment [3], the “effect on cell cycle distribution” value is “no or only a minor effect on cell cycle distribution”.
